# Measured values reported in patent US20230263905A1, “SONOSENSITIVE LIPOSOME AND METHOD FOR PREPARING SAME” (IMGT CO, LTD., priority 2020, published 2023).
# System: MDA-MB-231 cell line
# Assay: Cancer cell death effect, MTT assay
# Format: cell-based
# Conditions: not irradiated with ultrasound; 2-10 μg/mL doxorubicin, 3 hours treatment, 72 hours culture; FIG. 9
# Description: To compare and analyze a cell death effect of the sonosensitive liposome according to the presence/absence of ultrasound irradiation, cancer cell death effects were compared and analyzed according to the presence/absence of ultrasound irradiation using the sonosensitive liposomes of Example 1. An MDA-MB-231 cell line which is a triple-negative breast cancer cell line was used as cancer cells. The MDA-MB-231 cell line was seeded in each well of a 96-well plate at a concentration of 10,000 cells/mL, and then cultured overnight. The cell culture was cultured in a culture broth containing 10% fetal bovine serum (FBS) and 1% antibiotic in Dulbecco's Modified Eagle Medium (DMEM). The culture broth was removed from the wells in which the cells were cultured overnight, and replaced with FBS-free DMEM, and then cultured for an hour. Then, the sonosensitive liposome were added thereto, and cultured for 3 hours. To compare and analyze the cancer cell death according to the ultrasound irradiation, each of the designated wells was treated with a sonosensitive liposome (Sono liposome (US+)) irradiated with ultrasound and a sonosensitive liposome (Sono liposome (US−)) not irradiated with ultrasound. […] The cancer cell death effects were compared and analyzed by adding 200 μL of DMSO to formed formazan in each well and measuring the absorbance at a wavelength of 540 nm using an ELISA reader.
smiles,measurement,value
COc1cccc2c1C(=O)c1c(O)c3c(c(O)c1C2=O)C[C@@](O)(C(=O)CO)C[C@@H]3O[C@H]1C[C@H](N)[C@H](O)[C@H](C)O1 [doxorubicin],cell death effect on cancer cells,had a cancer cell death effect
